Measured values reported in patent publication US11447504B2, “Macrocyclic chlorine substituted indole derivatives” (Bayer Aktiengesellschaft, priority 2017, dated 2022).
Where two headings read alike, the source gives them in different places.

How the values were obtained:
AMO-1 = assay: Antiproliferation assay 7, AMO-1; type: cell-based; conditions: AMO-1 cells, 72 hours, CellTiter-Glo; read-out: Antiproli AMO-1 IC50 median
Outline: (§1)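 Proliferation over 72 h at 37° C was assessed by luminescent cell viability reagent, referenced to a day 0 plate.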

MCL-1 [1] = biological target: T1, MCL-1 (Homo sapiens (Human), UniProt Q07820, K194A/K197A/R201A); assay: Protein-protein interaction assay MCL-1/Noxa BH3 peptide (MCL-1 Assay, TR-FRET); type: binding; conditions: read-out: MCL-1 Assay IC50 (median)
T1 sequence (Q07820 whole entry K194A/K197A/R201A, looked up): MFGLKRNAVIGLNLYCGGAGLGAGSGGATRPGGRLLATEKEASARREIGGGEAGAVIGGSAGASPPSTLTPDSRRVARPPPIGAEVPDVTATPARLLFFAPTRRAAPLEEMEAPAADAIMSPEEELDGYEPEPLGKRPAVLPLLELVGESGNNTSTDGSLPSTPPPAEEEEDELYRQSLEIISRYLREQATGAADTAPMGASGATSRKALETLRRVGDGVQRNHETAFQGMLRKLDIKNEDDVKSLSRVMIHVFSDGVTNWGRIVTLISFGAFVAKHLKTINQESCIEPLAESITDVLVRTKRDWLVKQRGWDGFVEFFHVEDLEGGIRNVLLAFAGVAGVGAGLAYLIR

BCL-2 = BCL-2 (Homo sapiens (Human), UniProt P10415); assay: Protein-protein interaction assay BCL-2/Bad BH3 peptide (BCL-2 Assay, TR-FRET); type: binding; conditions: read-out: BCL-2 Assay IC50 (median)
Sequence of BCL-2 (P10415 other isoform, or with tags, fused parts or gaps): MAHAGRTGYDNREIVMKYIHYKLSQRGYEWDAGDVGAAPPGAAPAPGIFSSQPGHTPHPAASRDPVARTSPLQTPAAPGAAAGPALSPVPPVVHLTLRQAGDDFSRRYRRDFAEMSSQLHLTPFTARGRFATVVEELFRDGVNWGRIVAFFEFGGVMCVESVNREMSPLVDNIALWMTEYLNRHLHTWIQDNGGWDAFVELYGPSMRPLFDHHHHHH
Protocol: The dose-dependent inhibition by the compounds described in this invention of the interaction between BCL-2 and the BH3 domain of Bad (both human) was determined using a steady state binding competition assay with time-resolved fluorescence energy transfer (TR-FRET) readout.
(§2) For that, 100-fold concentrated DMSO solutions were prepared by serial dilutions (1:3.4) of a 2 mM stock solution in a clear, 384-well microtiter plate (Greiner Bio-One, Frickenhausen, Germany). From there, 50 nl were transferred in a dark test plate (Greiner Bio-One, Frickenhausen, Germany). […] This was followed by a 10-minute incubation step at 22° C. for pre-equilibration of the putative complex between His-BCL-2 and the compounds.
The mixture was incubated in the dark for one hour at 22° C. and then overnight at 4° C.
(§3) The resulting data (ratio) were normalized, taking 0% inhibition as the mean value of control measurements (usually 32 data points) where all reagents were included. In this case 50 nl DMSO were used instead of compounds. […] IC50 values were determined by regression analysis based on a 4 parameter equation (minimum, maximum, IC50, Hill; Y=Max+(Min−Max)/(1+(X/IC50)^Hill) using the Screener Software (Genedata).

SK-BR-3 = assay: Antiproliferation assay 7, SK-BR-3; type: cell-based; conditions: SK-BR-3 cells, 72 hours, CellTiter-Glo; read-out: Antiproli SK-BR-3 IC50 median
Protocol: (§4) Assessment of the Anti-Proliferative Effect of Compounds in Different Cell Lines
(§5) The impact of compounds on the proliferation of different cell lines was assessed using the CellTiter-Glo® Luminescent Cell Viability reagent from Promega (G7573).
(§6) In parallel, cells were plated in a reference (day 0) plate for time zero determination.
(§7) Rim wells were excluded. The cells were incubated for 72 hours in a humidified incubator at 37° C. The day 0 plate was measured by adding 30 μL/well of CTG solution (CellTiter-Glo® Luminescent Cell Viability reagent, Promega G7573) to time zero wells in the reference plate followed by a 10 minutes incubation and luminescence reading at 0.1 ms. using the PHERAstar FS microplate reader (BMG Labtech).
(§8) After 72 hours incubation, the treated plates were measured in the same way as the day 0 plate mentioned above.

SUDHL5 [2] = assay: Induction of caspase-3/7 activity (Assay 4), SUDHL5; type: cell-based; conditions: SUDHL5 cells, 3 hours, Caspase-Glo 3/7; read-out: Caspase SUDHL5 EC50 (median)
Outline: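 DLBCL cells treated with compounds for 3 hours at 37° C. Caspase-3/7 activity measured by Caspase-Glo 3/7 luminescence, with medium-only background subtracted.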

SUDHL10 [3] = assay: Induction of cytotoxicity (Assay 6), SUDHL10; conditions: read-out: Cytotox SUDHL10 IC50 (median); SUDHL10 cells, 5 hours, CellTiter-Glo
MV-4-11 = assay: Antiproliferation assay 7, MV-4-11; type: cell-based; conditions: MV-4-11 cells, 72 hours, CellTiter-Glo; read-out: Antiproli MV-4-11 IC50 median
Outline: as §1

SUDHL10 [4] = assay: Induction of caspase-3/7 activity (Assay 4), SUDHL10; type: cell-based; conditions: SUDHL10 cells, 3 hours, Caspase-Glo 3/7; read-out: Caspase SUDHL10 EC50 (median)
Outline: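 Luminescent Caspase-Glo 3/7 read-out after a 3 h, 37 °C compound exposure of the DLBCL line SUDHL10. Values are background-corrected using medium-only wells.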

MCL-1 [5] = biological target: T1, MCL-1; assay: Protein-compound interaction assay (SPR assay 8); type: binding; conditions: immobilized MBP-MCL-1, 25° C.
Description: Assay 8 Protein-Compound Interaction Assay (SPR Assay)
The ability of the compounds described in this invention to bind to MCL-1 may be determined using surface plasmon resonance (SPR). This allows for the quantification of binding in terms of the equilibrium dissociation constant (KD [M]), as well as association and dissociation rate constants (kon [1/M 1/s] and koff [1/s], respectively). The measurements may be performed using Biacore® T200 or Biacore® S200 instruments (GE Healthcare).
MBP-MCL-1 was diluted in 1×PBS-P+ (GE Healthcare) and injected on the activated chip surface. Subsequently, a solution of 1 M ethanolamine-HCl (GE Healthcare) was injected to block unreacted groups, resulting in approximately 400-2500 response units (RU) of immobilized protein. A reference surface was generated by treatment with NHS-EDC and ethanolamine-HCl.
The double-referenced sensorgrams were fit to a simple reversible Langmuir 1:1 reaction mechanism as implemented in the Biacore® T200 and S200 evaluation software (T200 evaluation software version 2.0 and S200 evaluation software version 1.0, GE Healthcare).

SUDHL5 [6] = assay: Antiproliferation assay 7, SUDHL5; type: cell-based; conditions: SUDHL5 cells, 72 hours, CellTiter-Glo; read-out: Antiproli SUDHL5 IC50 (median)
Outline: as §1

SUDHL10 [7] = assay: Antiproliferation assay 7, SUDHL10; type: cell-based; conditions: SUDHL10 cells, 72 hours, CellTiter-Glo; read-out: Antiproli SUDHL10 IC50 (median)
Protocol: as §4, §5, §6, §7, §8

SUDHL5 [8] = assay: Induction of cytotoxicity (Assay 6), SUDHL5; conditions: read-out: Cytotox SUDHL5 IC50 (median); SUDHL5 cells, 5 hours, CellTiter-Glo
Protocol: (§9) Assay 6 Induction of Cytotoxicity Upon Treatment of Cells with Selected Compounds
(§10) Therefore, cytotoxicity assays were run in parallel in SUDHL5 and SUDHL10 cells.
(§11) The different cell lines were plated in culture medium (RPMI 1640 [GIBCO #22400-089]supplemented with 10% Fetal Bovine Serum) at a density of 3,300 cells in 30 μL/well in a sterile, solid black, flat bottom, polystyrene, TC-treated 384-well microplate (Corning #3571) using Multidrop Combi Reagent Dispenser. As a control, medium without cells was also added to the plate. Cells were incubated in a humidified incubator at 37° C. overnight. […] Rim wells were excluded. The cells were incubated for 5 hours in a humidified incubator at 37° C. After this incubation, 30 μL of CellTiter-Glo® Luminescent Cell Viability reagent (Promega, G7573) was added to each well using the Multidrop Combi Reagent Dispenser, followed by 15 minutes incubation on a shaker at room temperature. Finally, luminescence was read at 0.1 ms, with a gain of 3000 using the PHERAstar FS microplate reader (BMG Labtech).

BCL-XL = BCL-XL (Homo sapiens (Human), UniProt Q07817); assay: Protein-protein interaction assay BCL-XL/Bad BH3 peptide (BCL-XL Assay, TR-FRET); type: binding; conditions: read-out: BCL-XL Assay IC50 (median)
Sequence of BCL-XL (Q07817 other isoform, or with tags, fused parts or gaps): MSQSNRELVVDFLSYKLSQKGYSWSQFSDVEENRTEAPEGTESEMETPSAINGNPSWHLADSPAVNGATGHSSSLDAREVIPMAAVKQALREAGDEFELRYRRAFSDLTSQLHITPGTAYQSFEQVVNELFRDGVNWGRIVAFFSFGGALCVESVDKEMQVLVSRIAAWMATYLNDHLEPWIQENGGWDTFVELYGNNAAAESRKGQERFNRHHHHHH
Protocol: Assay 2 Protein-Protein Interaction Assay: BCL-XL/Bad BH3 Peptide (BCL-XL Assay)
The dose-dependent inhibition by the compounds described in this invention of the interaction between BCL-XL and the BH3 domain of Bad (both human) was determined using a steady state binding competition assay with time-resolved fluorescence energy transfer (TR-FRET) readout.
as §2, with “His-BCL-XL” for “His-BCL-2”
The mixture was incubated in the dark for one hour at 22° C. and then overnight at 4° C. The formation of BCL-XL/Bad complexes was determined by measuring the resonance energy transfer of the anti-His- Eu-cryptate antibody to the streptavidin-XL665 present in the reaction.
as §3

SUDHL10 [9] = system: SUDHL10
SUDHL5 [10] = system: SUDHL5
Protocol: as §9, §10, §11

HMC-1-8 = assay: Antiproliferation assay 7, HMC-1-8; type: cell-based; conditions: HMC-1-8 cells, 72 hours, CellTiter-Glo; read-out: Antiproli HMC-1-8 IC50 median
Outline: as §1

| Compound | IC50 (AMO-1) [nM] | IC50 (MCL-1 [1]) [nM] | IC50 (BCL-2) [nM] | IC50 (SK-BR-3) [nM] | EC50 (SUDHL5 [2]) [nM] | IC50 (SUDHL10 [3]) [nM] | IC50 (MV-4-11) [nM] | EC50 (SUDHL10 [4]) [nM] | koff (geo mean) (MCL-1 [5]) [s⁻¹] | kon (geo mean) (MCL-1 [5]) | Kd (MCL-1 [5]; read-out: KD (geo mean)) [nM] | IC50 (SUDHL5 [6]) [nM] | IC50 (SUDHL10 [7]) [nM] | IC50 (SUDHL5 [8]) [nM] | IC50 (BCL-XL) [nM] | IC50 (SUDHL10 [9]) [nM] | IC50 (SUDHL5 [10]) [nM] | IC50 (HMC-1-8) [nM] |
| --- | --- | --- | --- | --- | --- | --- | --- | --- | --- | --- | --- | --- | --- | --- | --- | --- | --- | --- |
| 4-chloro-3-ethyl-1-[2-(morpholin-4-yl)ethyl]-7-[3-(naphthalen-1-yloxy)propyl]-1,10,11,12,13,15-hexahydropyrazolo[4′,3′:9,10][1,6]oxazacycloundecino[8,7,6-hi]indole-8-carboxylic acid-N-ethylethanamine Salt (Enantiomer 1) [Example 9] | 874 | 0.47 | > 20000 | 1080 | 270 | 340 | 823 | 330 | 0.0096 | 8.7E6 1/M 1/s | 1.1 | 370 | 270 | 290 | > 20000 | – | – | – |
| Cc1nn(C)c2c1-c1cccc3c(CCCOc4cccc5ccccc45)c(C(=O)O)n(c13)CCCCN2Cc1ccccc1 [Example 69, (rac)-8-benzyl-9,11-dimethyl-1-[3-(1-naphthyloxy)propyl]-4,5,6,7,8,9-hexahydropyrazolo[4′,3′:4,5][1,6]diazecino[3,2,1-hi]indole-2-carboxylic Acid] | – | 350 | – | – | > 33000 | – | – | 22000 | – | – | – | 14000 | 6300 | – | – | 32000 | 21000 | – |
| Cc1nn(C)c2c1-c1cccc3c(CCCOc4cccc5ccccc45)c(C(=O)O)n(c13)CCCCN2 [Example 70, (rac)-9,11-dimethyl-1-[3-(1-naphthyloxy)propyl]-4,5,6,7,8,9-hexahydropyrazolo[4′,3′:4,5][1,6]diazecino[3,2,1-hi]indole-2-carboxylic Acid] | – | 43 | – | – | > 33000 | – | – | 29000 | – | – | – | > 33000 | 15000 | – | – | > 33000 | > 33000 | – |
| (rac)-4-chloro-3-ethyl-1-[2-(morpholin-4-yl)ethyl]-7-[3-(naphthalen-1-yloxy)propyl]-1,10,11,12,13,15-hexahydropyrazolo[4′,3′:9,10][1,6]oxazacycloundecino[8,7,6-hi]indole-8-carboxylic Acid [Example 8] | 1180 | 0.89 | – | 3000 | 290 | – | 1100 | 360 | – | – | – | 470 | – | – | – | 450 | 350 | – |
| (rac)-4-chloro-12,12-difluoro-2,3-dimethyl-7-{3-[(naphthalen-1-yl)oxy]propyl}-2,10,11,12,13,15-hexahydropyrazolo[4′,3′:9,10][1,6]oxazacycloundecino[8,7,6-hi]indole-8-carboxylic Acid [Example 55] | 1710 | 2.3 | 18800 | – | 510 | – | – | 1500 | – | – | – | 620 | – | – | > 20000 | 2000 | 840 | 5750 |
| (rac)-4-chloro-14-(2,2-difluoroethyl)-3-ethyl-7-{3-[(6-fluoronaphthalen-1-yl)oxy]propyl}-2-methyl-10,11,12,13,14,15-hexahydro-2H-pyrazolo[3′,4′:8,9][1,6]diazacycloundecino[10,11,1-hi]indole-8-carboxylic Acid [Example 62] | – | 2.7 | – | – | 270 | – | – | – | – | – | – | – | – | – | – | – | 330 | – |
